Experimental data as given in patent US9724351B2, “Compounds for the treatment of paramoxyvirus viral infections” (priority 2012, dated 2017).

Tested on: Respiratory Syncytial Virus (RSV) long strain (ATCC#VR-26)
Experiment: RSV Antiviral Assay (CPE reduction assay)
Assay type: cell-based
Settings: human respiratory syncytial virus, 120 h; HEp-2 cells infected with RSV long strain, 5 days, CCK-8 readout; bins (Table 2: less than 1 μM; Table 3: equal to or higher than 1 μM and less than 50 μM); read-out: 50% effective concentration (EC50)
Experimental: CPE reduction assays are performed as described by Sidwell and Huffman et al., Appl. Microbiol. (1971) 22(5):797-801 with slight modifications. HEp-2 cells (ATCC#, CCL-23) are seeded at a density of 1,500 cells/30 μl/well into the 384-well cell plate(s) (Corning#3701) one day prior to the assay. Compounds are added into 384-well cell plates by Labcyte POD 810 Plate Assembler system. Each of the test compounds is provided to duplicate wells of a 384-well cell plate at final concentrations starting from 100 μM or 1 μM using ⅓ stepwise dilutions for 9 points. Quick-thaw Respiratory Syncytial Virus (RSV) long strain (ATCC#VR-26) stock in a 37° C. water bath. Place on ice until ready to use. Viruses are diluted to the concentration of 100 TCID50/30 μl with medium and 30 μl diluted RSV are added into related wells of 384-well cell plates. For each plate, sixteen wells are set aside as uninfected, untreated cell controls (CC), and nine wells per test plate receive virus only as a control for virus replication (VC). The final DMSO concentration of all wells is 1%. Place the plates at 37° C., 5% CO2 for 5 days.
After 5 days incubation, observe the CPE of cells in all wells. […] Six μl of cell counting kit-8 reagent (CCK-8, Dojindo Molecular Technologies Inc., CK04-20) are added to each well, which allows colorimetric assays to determine the number of viable cells through the dehydrogenase activity detection. After 3-4 hour incubation, the absorbance of each well is measured with a spectrophotometric plate reader at 450 nm wavelength, using a 630 nm filter as background according to manufacturer's instruction. The 50% effective concentration (EC50) is calculated by using regression analysis, based on the mean O.D. at each concentration of compound.

| SMILES | EC50 [µM] |
| --- | --- |
| COc1cc(C(=O)NCC(=O)N/N=C/c2csc3ccccc23)ccc1Cl [Compound 215] | 1 to 50 |
| COc1cc(C(=O)NCC(=O)c2ccc(OC)c(-c3ccc(F)c(Cl)c3)n2)ccc1OCC1(N)CC1 [Compound 1307] | 1 to 50 |
| COc1ccc(C(=O)NCC(=O)c2ccc(OC)c(-c3ccccc3-c3ccccc3)n2)cc1OC [Compound 1523] | 1 to 50 |

Tested on: not listed separately
Experiment: Cytotoxicity Determination
Assay type: cell-based
Settings: human, HEp-2 cells, without addition of virus, CCK-8 readout, bins (Table 4: greater than 100 μM; Table 5: equal to or less than 100 μM and greater than 10 μM), read-out: 50% cytotoxicity concentration (CC50)
Experimental: In order to determine the compound cytotoxicity, in parallel, each of the compounds is applied to duplicate wells in a 384-well cell plate at serial final concentrations starting from 100 μM using ½ stepwise dilutions for 7 points without addition of virus. Incubate the cells at 37° C., 5% CO2 for 5 days. Add 6 μl CCK-8 into each well and incubate in a CO2 incubator at 37° C. for 3-4 hours. Read the plates to obtain the optical densities which are used to calculate 50% cytotoxicity concentration (CC50).

| SMILES | CC50 at 5 days [µM] |
| --- | --- |
| COc1ccc(C(=O)NCC(=O)N/C=C/c2csc3ccccc23)cc1OC [Compound 4102] | 10 to 100 |
| COc1ccc(C(=O)NN(C)C(=O)c2cccc(-c3csc4c(F)cccc34)n2)cc1OC [Compound 3102] | 10 to 100 |
| COc1ccc(C(=O)NCC(=O)N/N=C(\C)c2nc3ccccc3s2)cc1OC [Compound 417] | 10 to 100 |
| COc1ccc(C(=O)NCC(=O)c2coc(-c3csc4c(F)cccc34)n2)cc1OC [Compound 3200] | > 100 |
| CCOc1ccc(C(=O)NCC(=O)Nc2nc3cc(C)ccc3n2CCOC)cc1OC [Compound 916] | > 100 |
| COc1ccc(CNCC(=O)N/N=C/c2csc3ccccc23)cc1OC [Compound 241] | 10 to 100 |
| CCOc1ccc(C(=O)NCC(=O)N/N=C(\C)c2csc3cccnc23)cc1OC [Compound 465] | 10 to 100 |
| CCOc1ccc(C(=O)NCC(=O)NCCc2csc3c(F)cccc23)cc1OC [Compound 908] | > 100 |
| COc1ccc(C(=O)NCC(=O)NN=C2Cc3ccccc3C2)cc1OC [Compound 420] | > 100 |
| COc1ccc(C(=O)NCc2nnc(-c3csc4ccccc34)o2)cc1OC [Compound 4103] | > 100 |
| COc1ccc(C(=O)NCC(=O)Nc2nccc3ccccc23)cc1OC [Compound 906] | > 100 |
| COc1ccc(C(=O)NCC(=O)N/N=C(\C)c2cccc3ccccc23)cc1OC [Compound 433] | 10 to 100 |
| CCOc1ccc(C(=O)NCC(=O)Nc2nc3ccc(F)c(F)c3n2CCOC)cc1OC [Compound 915] | > 100 |
| COc1ccc(C(=O)NCC(=O)N/N=C(\C)c2c(C)[nH]c3ccccc23)cc1OC [Compound 416] | 10 to 100 |
| COc1cc(C(=O)NCC(=O)c2cccc(-c3csc4c(F)cccc34)n2)ccc1OC1CCN(C)CC1 [Compound 1234] | 10 to 100 |
| COc1ccc(C(=O)NCC(=O)c2cc(=O)cc(-c3csc4c(F)cccc34)[nH]2)cc1OC [Compound 1222] | > 100 |
| CCOc1ccc(C(=O)NCC(=O)NNC(=O)c2csc3cccnc23)cc1OC [Compound 902] | 10 to 100 |
| COc1ccc(C(=O)NCC(=O)c2nc(-c3csc4c(F)cccc34)n[nH]2)cc1OC [Compound 860] | 10 to 100 |
| CCOc1ccc(C(=O)NCC(=O)NCC(=O)c2csc3c(F)cccc23)cc1OC [Compound 910] | 10 to 100 |
| COc1ccc(C(=O)CCC(=O)c2cccc(-c3csc4c(F)cccc34)n2)cc1OC [Compound 1339] | 10 to 100 |
| COc1cc(C(=O)CNC(=O)c2ccc(OC)c(OC)c2)nc(-c2csc3c(F)cccc23)n1 [Compound 1201] | > 100 |

| SMILES | CC50 at 5 days [µM] |
| --- | --- |
| COc1ccc(C(=O)NCC(=O)Nc2cc3ccccc3c(=O)[nH]2)cc1OC [Compound 907] | > 100 |
| COc1ccc(C(=O)NCC(=O)N/N=C(\C)c2csc3ccc(Br)cc23)cc1OC [Compound 432] | 10 to 100 |
| Cc1ccc(/C=N/NC(=O)CNC(=O)c2ccccc2)o1 [Compound 119] | 10 to 100 |
| CCOc1ccc(C(=O)NCCNC(=O)N(CCOC)c2csc3c(F)cccc23)cc1OC [Compound 1000] | > 100 |
| COc1ccc(C(=O)NCC(=O)N/N=C/c2csc3ccccc23)cc1 [Compound 101] | > 100 |
| COc1ccc(C(=O)NCC(=O)N/N=C(\C)c2cc(-c3ccccc3)sc2C)cc1OC [Compound 419] | 10 to 100 |
| COc1ccc(S(=O)(=O)NCC(=O)N/N=C(\C)c2csc3ccccc23)cc1OC [Compound 240] | 10 to 100 |
| COc1cc(C(=O)NCC(=O)c2ccc(OC)c(-c3ccc(F)c(Cl)c3)n2)ccc1OCCO [Compound 1603] | > 100 |
| CCOc1ccc(C(=O)NCC(=O)Nc2cc3ccccc3n2C)cc1OC [Compound 909] | > 100 |
| COc1ccc(C(=O)NCCc2nccc(-c3csc4c(F)cccc34)n2)cc1OC [Compound 1208] | > 100 |
| COc1cc(C(=O)NCC(=O)N/N=C(\C)c2csc3ccccc23)ccn1 [Compound 473] | > 100 |
| COc1ccc(C(=O)NCC(=O)Nc2ccc3c(-c4ccccc4)c[nH]c3c2)cc1OC [Compound 4104] | > 100 |
| COc1ccc(C(=O)NCC(=O)c2nc(-c3csc4c(F)cccc34)co2)cc1OC [Compound 3201] | 10 to 100 |
| COc1ccc(C(=O)N(C)CC(=O)N/N=C(\C)c2csc3ccccc23)cc1OC [Compound 242] | > 100 |
| COc1ccc(C(=O)NCC(=O)N/N=C(\C)c2c(Br)sc3ccccc23)cc1OC [Compound 437] | 10 to 100 |
| COc1ccc(C(=O)NCC(=O)N/N=C(\C)c2csc(-c3ccccc3)c2)cc1OC [Compound 429] | > 100 |
| COc1cc(C(=O)NCC(=O)c2cccc(-c3csc4c(F)cccc34)n2)ccc1OC1CCNCC1 [Compound 1231] | 10 to 100 |
| COc1ccc(C(=O)NC(C)C(=O)c2nc(-c3csc4c(F)cccc34)ccc2O)cc1OC (centres unmarked) [Compound 1304] | 10 to 100 |
| COc1ccc(C(=O)NCC(=O)N/N=C2\CCc3ccccc32)cc1OC [Compound 425] | > 100 |
| COc1ccc(C(=O)NCCc2ccnc(-c3csc4c(F)cccc34)n2)cc1OC [Compound 1207] | > 100 |
| COc1ccc(C(=O)NCC(=O)c2cnc(-c3csc4c(F)cccc34)n2C)cc1OC [Compound 2205] | > 100 |

| SMILES | CC50 at 5 days [µM] |
| --- | --- |
| CN(C)c1ccc(C(=O)NCC(=O)N/N=C/c2csc3ccccc23)cc1 [Compound 237] | 10 to 100 |
| COc1ccc(C(=O)NCC(=O)NNCCC(=O)c2csc3ccccc23)cc1OC [Compound 904] | > 100 |
| COc1ccc(C(=O)NCC(=O)N/N=C/c2csc(-c3ccccc3)c2)cc1OC [Compound 487] | 10 to 100 |
| COc1ccc(C(=O)Nc2cn(C)c3ccc(-c4csc5c(F)cccc45)nc3c2=O)cc1OC [Compound 2901] | > 100 |
| COc1ccc(C(=O)NCC(=O)c2ncc(-c3csc4c(F)cccc34)n2C)cc1OC [Compound 2204] | 10 to 100 |
| COc1ccc2c(c1)/C(=N/NC(=O)CNC(=O)c1ccc(OC)c(OC)c1)CC2 [Compound 424] | > 100 |
| COc1ccc(C(=O)NCC(=O)NN=C(c2cccs2)c2cccs2)cc1OC [Compound 431] | > 100 |
| COc1cc(C(=O)NCC(=O)c2cccc(-c3csc4c(F)cccc34)n2)ccc1OCCN1CCOCC1 [Compound 1233] | 10 to 100 |
| CC(C)Oc1ccc(C(=O)NCC(=O)N/N=C/c2csc3ccccc23)cc1 [Compound 236] | 10 to 100 |
| CCn1cc(-c2csc3c(F)cccc23)nc1C(=O)CNC(=O)c1ccc(OC)c(OC)c1 [Compound 1354] | 10 to 100 |
| CCOc1ccc(C(=O)NCC(=O)Nc2nc3cc(F)ccc3n2CCOC)cc1OC [Compound 914] | > 100 |
| COc1ccc(C(=O)NCC(=O)N/N=C(\C)c2cnc3ccccc3c2)cc1OC [Compound 435] | > 100 |
| COc1ccc(C(=O)NCC(=O)N/N=C(\C)c2csc3c2CCCC3)cc1OC [Compound 428] | > 100 |
| COc1ccc(C(=O)NCC(=O)N/N=C/c2cncc3ccccc23)cc1OC [Compound 412] | 10 to 100 |
| CCOc1ccc(C(=O)NCC(=O)Nc2nc3cc(C(=O)OC)ccc3n2CCOC)cc1OC [Compound 912] | 10 to 100 |
| COc1ccc(C(=O)NCCC(=O)N/N=C(/C)c2csc3ccccc23)cc1OC [Compound 243] | > 100 |
| CCOc1ccc(C(=O)NCC(=O)Nc2nc3ccccc3n2CCOC)cc1OC [Compound 913] | > 100 |
| COc1ccc(C(=O)NCC(=O)N/N=C2\CCc3cc(OC)c(OC)cc32)cc1OC [Compound 421] | > 100 |
| COc1ccc(CC(=O)NCC(=O)N/N=C(/C)c2csc3ccccc23)cc1OC [Compound 472] | 10 to 100 |
| COc1ccc(C(=O)NCC(=O)c2cncc(-c3csc4c(F)cccc34)n2)cc1OC [Compound 1219] | > 100 |
